# According to patent US5041423A, “Antibiotics of the mureidomycin group, their preparation, and their therapeutic use” (Sankyo Company, Limited, priority 1987, dated 1991):
# How the values were obtained:
# [1] = tested on: Escherichia coli NIHJ JC-2; assay: MIC by agar dilution method, Mueller-Hinton agar; type: cell-based
# Method: (§1) The minimal inhibitory concentrations (MIC) of mureidomycins E and F against various Gram-positive and Gram-negative bacteria were determined by the agar dilution method, using a Mueller-Hinton agar medium (produced by Difco).
# [2] = tested on: Proteus mirabilis SANK 70461; assay: MIC by agar dilution method, Mueller-Hinton agar; type: cell-based
# Method: as §1
# [3] = tested on: Pseudomonas aeruginosa ATCC 13388; assay: MIC by agar dilution method, Mueller-Hinton agar; type: cell-based
# Method: as §1
# [4] = tested on: Pseudomonas aeruginosa NCTC 10490; assay: MIC by agar dilution method, Mueller-Hinton agar; type: cell-based
# Method: as §1
# [5] = tested on: Pseudomonas aeruginosa NRRL B1000; assay: MIC by agar dilution method, Mueller-Hinton agar; type: cell-based
# Method: as §1
# [6] = tested on: Pseudomonas aeruginosa SANK 70579; assay: MIC by agar dilution method, Mueller-Hinton agar; type: cell-based
# Method: as §1
# [7] = tested on: Pseudomonas aeruginosa SANK 70970; assay: MIC by agar dilution method, Mueller-Hinton agar; type: cell-based
# Method: as §1
# [8] = tested on: Pseudomonas aeruginosa SANK 75175; assay: MIC by agar dilution method, Mueller-Hinton agar; type: cell-based
# Method: as §1
# [9] = tested on: Pseudomonas aeruginosa SANK 75775; assay: MIC by agar dilution method, Mueller-Hinton agar; type: cell-based
# Method: as §1
# [10] = tested on: Serratia marcescens SANK 73060; assay: MIC by agar dilution method, Mueller-Hinton agar; type: cell-based
# Method: as §1
# [11] = tested on: Staphylococcus aureus FDA 209P JC-1; assay: MIC by agar dilution method, Mueller-Hinton agar; type: cell-based
# Method: as §1
# [12] = Toxicity in mice after intravenous administration; type: in vivo; settings: intravenously 400 mg/kg
# [13] = Solubility (physico-chemical properties)
# [14] = tested on: Pseudomonas aeruginosa SANK 70579; assay: Growth inhibition test of derivatives; type: cell-based
Compound,MIC [1],MIC [2],MIC [3],MIC [4],MIC [5],MIC [6],MIC [7],MIC [8],MIC [9],MIC [10],MIC [11],toxicity [12],Solubility in acetone [13],Solubility in benzene [13],Solubility in chloroform [13],Solubility in ethyl acetate [13],Solubility in methanol [13],Solubility in water [13],inhibition of growth [14]
CSCC[C@@H](NC(=O)N[C@@H](Cc1cccc(O)c1)C(=O)O)C(=O)N[C@@H](C(=O)N/C=C1/C[C@@H](O)[C@H](n2ccc(=O)[nH]c2=O)O1)[C@@H](C)N(C)C(=O)[C@H]1Cc2cc(O)ccc2CN1 [Mureidomycin F],> 200 µg/mL,> 200 µg/mL,3.13 µg/mL,0.8 µg/mL,3.13 µg/mL,1.56 µg/mL,100 µg/mL,50 µg/mL,25 µg/mL,> 200 µg/mL,> 200 µg/mL,No toxicity was observed,slightly soluble,insoluble,insoluble,insoluble,Soluble,Soluble,
"CSCC[C@H](NC(=O)NC(Cc1cccc(O)c1)C(=O)O)C(=O)N[C@@H](C(=O)NC=C1CC(O)C(n2ccc(=O)[nH]c2=O)O1)C(C)N(C)C(=O)[C@@H](N)Cc1cccc(O)c1 (some centres unmarked) [Mureidomycin A, reference compound]",,,,,,,,,,,,,slightly soluble,insoluble,insoluble,insoluble,Soluble,Soluble,
methylmureidomycin F,,,,,,,,,,,,,,,,,,soluble,inhibit the growth
phenylmureidomycin E,,,,,,,,,,,,,,,,,,soluble,inhibit the growth
methylmureidomycin E,,,,,,,,,,,,,,,,,,soluble,inhibit the growth
CSCC[C@@H](NC(=O)N[C@H](Cc1cccc(O)c1)C(=O)O)C(=O)N[C@H](C(=O)N/C=C1/C[C@H](O)[C@@H](n2ccc(=O)[nH]c2=O)O1)[C@H](C)N(C)C(=O)[C@H]1Cc2cccc(O)c2CN1 [Mureidomycin E],> 200 µg/mL,> 200 µg/mL,25 µg/mL,< 0.4 µg/mL,25 µg/mL,< 0.4 µg/mL,25 µg/mL,25 µg/mL,6.25 µg/mL,> 200 µg/mL,> 200 µg/mL,No toxicity was observed,slightly soluble,insoluble,insoluble,insoluble,Soluble,Soluble,
phenylmureidomycin F,,,,,,,,,,,,,,,,,,soluble,inhibit the growth
